Like-named read-outs stand apart in the source and are kept apart here.
Tests used:
[1] = molecular target: T1, Human BACE2 (Homo sapiens, UniProt Q9Y5Z0); assay: TR-FRET assay; format: biochemical; conditions: substrate 100 nM, pH4.5
T1 construct: the soluble part of the human β-Secretase2 (AA1-AA473) was cloned using BACE2(1-473)-(AVT)-Fc-pDEST12.2 mammalian expression vector; AVT linker (C); made in house
T1 sequence (Q9Y5Z0 21-473): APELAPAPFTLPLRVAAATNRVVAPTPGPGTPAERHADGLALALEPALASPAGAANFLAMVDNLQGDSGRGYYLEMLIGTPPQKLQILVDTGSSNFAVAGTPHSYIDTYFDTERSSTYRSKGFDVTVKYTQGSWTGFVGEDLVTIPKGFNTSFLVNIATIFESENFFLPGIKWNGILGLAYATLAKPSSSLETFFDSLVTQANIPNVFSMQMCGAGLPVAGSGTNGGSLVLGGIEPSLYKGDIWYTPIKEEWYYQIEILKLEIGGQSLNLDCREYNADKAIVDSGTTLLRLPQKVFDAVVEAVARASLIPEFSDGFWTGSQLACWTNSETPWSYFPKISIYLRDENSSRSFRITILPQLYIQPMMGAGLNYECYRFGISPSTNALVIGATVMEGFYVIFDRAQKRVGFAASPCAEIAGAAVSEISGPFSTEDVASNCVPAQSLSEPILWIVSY

[2] = molecular target: T2, Human BACE1 (Homo sapiens, UniProt P56817); assay: Diluted TR-FRET assay; format: biochemical; conditions: 50 times less enzyme, 6.5 h reaction time at r.t.; read-out: IC50 BACE1 (dil. TR-FRET)
T2 construct: the soluble part of the human β-Secretase1 (AA1-AA460) was cloned using the BACE1(1-460)-(AVT)-Fc-pGEN-IRES-neo mammalian expression vector; AVT linker (C); made in house
T2 sequence (P56817 22-460): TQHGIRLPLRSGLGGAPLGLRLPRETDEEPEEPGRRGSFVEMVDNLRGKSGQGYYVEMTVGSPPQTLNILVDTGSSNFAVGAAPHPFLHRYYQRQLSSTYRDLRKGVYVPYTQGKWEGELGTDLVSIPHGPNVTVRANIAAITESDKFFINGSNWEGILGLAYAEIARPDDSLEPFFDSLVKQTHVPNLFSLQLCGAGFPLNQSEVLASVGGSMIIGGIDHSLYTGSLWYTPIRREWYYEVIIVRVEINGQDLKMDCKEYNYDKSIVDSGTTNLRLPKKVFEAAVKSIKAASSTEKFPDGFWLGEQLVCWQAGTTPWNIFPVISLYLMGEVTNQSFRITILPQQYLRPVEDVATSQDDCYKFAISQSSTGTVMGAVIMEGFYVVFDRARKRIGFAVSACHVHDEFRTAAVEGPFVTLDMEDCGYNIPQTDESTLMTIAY
Method in brief: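 Human BACE1 (residues 1-460) was fused to an IgG1 Fc affinity tag and stably expressed in HEK 293 cells. Using a Multidrop Combi, 7 μL enzyme was added to 0.8 μL compound in dimethylsulphoxide and incubated 10 minutes. Reactions were stopped with 5.5 μL NaOAC Stop solution (pH 9), and TR-FRET fluorescence was read on a Pherastar HTRF module.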

[3] = tested on: SH-SY5Y cells; assay: sAPPβ release assay
Protocol: Cells were thawed and seeded at a concentration of around 10000 cells/well in DMEM/F-12 with Glutamax, 10% FCS and 1% non-essential amino acids to a 384-well tissue culture treated plate, 30 μL cell susp/well. The cell plates were then incubated for 7-24 h at 37° C., 5% CO2.
The cell medium was removed, followed by addition of 50 μL compound diluted in DMEM/F-12 with Glutamax, 10% FCS, 1% non-essential amino acids to a final cone of 0.5% DMSO. The compounds were incubated with the cells for 16-17 h (overnight) at 37° C., 5% CO2.
Meso Scale Discovery (MSD) plates were used for the detection of sAPP release. MSD sAPPβ plates were blocked in 1% BSA in Tris wash buffer for 1 h on shake at r.t. and washed 1 time in Tris wash buffer. […] The MSD plates were incubated with shaking at r.t. for 2 h and the media discarded. 10 μL detection antibody was added (1 nM) per well followed by incubation with shaking at r.t. for 2 h and then discarded. 35 μL Read Buffer was added per well and the plates were read in a Meso Scale Discovery SECTOR6000 Imager.

[4] = Homo sapiens, SH-SY5Y, read-out: IC50 Cell (sAPPβ release, nM), SH-SY5Y cells, compounds incubated 16-17 h
[5] = read-out: IC50 Cell (sAPPβ release), SH-SY5Y cells, compounds incubated 16-17 h

| IC50 ([1]; enzyme 2.7 μg/mL) | IC50 [2] | IC50 [3, 4] | IC50 [3, 5] | IC50 ([1]; enzyme […]) | Structure (SMILES) | IC50 ([3]; Homo sapiens, SH-SY5Y, read-out: IC50 Cell (sAPPβ release, nM)) |
| --- | --- | --- | --- | --- | --- | --- |
| 2.11 µM | 0.294 µM | 1.8 nM |  |  | [2H]C([2H])([2H])O[C@@H]1CC[C@]2(Cc3ccc(-c4cnccc4F)cc3[C@]23N=C(N)OC3([2H])[2H])C[C@H]1C [Compound 107, {(1R,1′R,3R,4R)-4-(methoxy-d3)-3-methyl-6′-(4-fluoropyridin-3-yl)-3′H,5″H-dispiro[cyclohexane-1,2′-indene-1′,4″-oxazol]-5″,5″-d2-2″-amine}] |  |
| 0.096 µM | 0.067 µM | 10 nM |  |  | [2H]C1([2H])OC(N)=NC12c1cc(-c3cc(F)cc(F)c3)ccc1C[C@@]21CC[C@H](OC)[C@@H](C)C1 (stereo partly drawn) [Compound 110, {(1S,3S,4S)-4-methoxy-3-methyl-6′-(3,5-difluorophenyl)-3′H,5″H-dispiro[cyclohexane-1,2′-indene-1′,4″-oxazol]-5″,5″-d2-2″-amine}] |  |
| > 5 µM | 2.16 µM | 89 nM |  |  | [2H]C1([2H])OC(N)=NC12c1cc(-c3ccnc(O)c3)ccc1C[C@@]21CC[C@H](OC)[C@@H](C)C1 (stereo partly drawn) [Compound 111] |  |
| 4.82 µM | 2.03 µM | 14 nM |  |  | [2H]C1([2H])OC(N)=N[C@]12c1cc(-c3ccncc3)ccc1C[C@@]21CC[C@H](OC)[C@@H](C)C1 [Compound 112, {(1S,1′R,3S,4S)-4-methoxy-3-methyl-6′-(pyridin-4-yl)-3′H,5″H-dispiro[cyclohexane-1,2′-indene-1′,4″-oxazol]-5″,5″-d2-2″-amine}] |  |
| 0.064 µM | 0.017 µM | 0.2 nM |  |  | [2H]C1([2H])OC(N)=N[C@]12c1cc(-c3cncc(C#N)c3)ccc1C[C@@]21CC[C@H](OC)[C@@H](C)C1 [Compound 113, {(1S,1′R,3S,4S)-4-methoxy-3-methyl-6′-(5-cyanopyridin-3-yl)-3′H,5″H-dispiro[cyclohexane-1,2′-indene-1′,4″-oxazol]-5″,5″-d2-2″-amine}] |  |
| 1.84 µM | 0.77 µM | 8 nM |  |  | [2H]C1([2H])OC(N)=N[C@]12c1cc(-c3ccccn3)ccc1C[C@@]21CC[C@H](OC)[C@@H](C)C1 [Compound 114, {(1S,1′R,3S,4S)-4-methoxy-3-methyl-6′-(pyridin-2-yl)-3′H,5″H-dispiro[cyclohexane-1,2′-indene-1′,4″-oxazol]-5″,5″-d2-2″-amine}] |  |
| 2.22 µM | 0.346 µM | 13 nM |  |  | [2H]C1([2H])OC(N)=N[C@]12c1cc(-c3ccnnc3)ccc1C[C@@]21CC[C@H](OC)[C@@H](C)C1 [Compound 115, {(1S,1′R,3S,4S)-4-methoxy-3-methyl-6′-(pyridazin-4-yl)-3′H,5″H-dispiro[cyclohexane-1,2′-indene-1′,4″-oxazol]-5″,5″-d2-2″-amine}] |  |

Further lines, the compound ahead of its results:

| Structure (SMILES) | IC50 ([1]; enzyme 2.7 μg/mL) | IC50 [2] | IC50 [3, 4] | IC50 [3, 5] | IC50 ([1]; enzyme […]) | IC50 ([3]; Homo sapiens, SH-SY5Y, read-out: IC50 Cell (sAPPβ release, nM)) |
| --- | --- | --- | --- | --- | --- | --- |
| COCCC1Cc2ccc(-c3cc(C#N)cc(OC)c3)cc2C12COC(N)=N2 (stereo not drawn) [Compound 92, 3-(2′-amino-2-(2-methoxyethyl)-2,3-dihydro-5′H-spiro[indene-1,4′-oxazol]-6-yl)-5-methoxybenzonitrile] | 0.437 µM | 4.16 µM | 223 nM |  |  |  |
| COCCC1(C)Cc2ccc(-c3cc(C#N)cc(OC)c3)cc2C12COC(N)=N2 (stereo not drawn) [Compound 93, 3-(2′-amino-2-(2-methoxyethyl)-2-methyl-2,3-dihydro-5′H-spiro[indene-1,4′-oxazol]-6-yl)-5-methoxybenzonitrile] | 1.21 µM | > 5 µM | 561 nM |  |  |  |
| NC1=NC2(CO1)c1cc(-c3cncnc3)ccc1CC2C1CCOCC1 (stereo not drawn) [Compound 94, 6-(pyrimidin-5-yl)-2-(tetrahydro-2H-pyran-4-yl)-2,3-dihydro-5′H-spiro[indene-1,4′-oxazol]-2′-amine] | 0.701 µM | 4.66 µM | 331 nM |  |  |  |
| CC1(C2CCOCC2)Cc2ccc(-c3cncnc3)cc2C12COC(N)=N2 (stereo not drawn) [Compound 95, 2-methyl-6-(pyrimidin-5-yl)-2-(tetrahydro-2H-pyran-4-yl)-2,3-dihydro-5′H-spiro[indene-1,4′-oxazol]-2′-amine] | > 5 µM | > 5 µM |  | 889 nM |  |  |
| CC1(C2Cc3ccc(-c4cncnc4)cc3C23COC(N)=N3)CCOCC1 (stereo not drawn) [Compound 96, 2-(4-methyltetrahydro-2H-pyran-4-yl)-6-(pyrimidin-5-yl)-2,3-dihydro-5′H-spiro[indene-1,4′-oxazol]-2′-amine] | 1.79 µM | > 5 µM | 205 nM |  |  |  |
| C[C@@H]1CC(C2Cc3ccc(-c4cncnc4)cc3C23COC(N)=N3)C[C@H](C)O1 (stereo partly drawn) [Compound 97, 2-((2R,6S)-2,6-dimethyltetrahydro-2H-pyran-4-yl)-6-(pyrimidin-5-yl)-2,3-dihydro-5′H-spiro[indene-1,4′-oxazol]-2′-amine] | > 5 µM | > 5 µM | 1420 nM |  |  |  |
| NC1=NC2(CO1)c1cc(-c3cncnc3)ccc1CC2N1CCOCC1 (stereo not drawn) [Compound 98, 2-morpholino-6-(pyrimidin-5-yl)-2,3-dihydro-5′H-spiro[indene-1,4′-oxazol]-2′-amine] | > 1.58 µM | > 5 µM |  |  |  | 1840 nM |
| CC#Cc1cncc(-c2ccc3c(c2)C2(COC(N)=N2)C(N2CCOCC2)C3)c1 (stereo not drawn) [Compound 99, 2-morpholino-6-(5-(prop-1-yn-1-yl)pyridin-3-yl)-2,3-dihydro-5′H-spiro[indene-1,4′-oxazol]-2′-amine] | 0.519 µM | 3.19 µM | 489 nM |  |  |  |
| COc1cc(C#N)cc(-c2ccc3c(c2)C2(COC(N)=N2)C(N2CCOCC2)C3)c1 (stereo not drawn) [Compound 100, 3-(2′-amino-2-morpholino-2,3-dihydro-5′H-spiro[indene-1,4′-oxazol]-6-yl)-5-methoxybenzonitrile] | 1.37 µM | > 5 µM | 2160 nM |  |  |  |
| COc1cc(C#N)cc(-c2ccc3c(c2)C2(COC(N)=N2)C(C)(C2CCOCC2)C3)c1 (stereo not drawn) [Compound 101, 3-(2′-amino-2-methyl-2-(tetrahydro-2H-pyran-4-yl)-2,3-dihydro-5′H-spiro[indene-1,4′-oxazol]-6-yl)-5-methoxybenzonitrile] | 0.274 µM | 0.194 µM | 75.6 nM |  |  |  |
| CC1(C2CCOCC2)Cc2ccc(-c3cncnc3)cc2C12COC(N)=N2 (stereo not drawn) [Compound 102, 2-methyl-6-(pyrimidin-5-yl)-2-(tetrahydro-2H-pyran-4-yl)-2,3-dihydro-5′H-spiro[indene-1,4′-oxazol]-2′-amine] |  | 2.19 µM |  | 32.9 nM | > 5 µM |  |
| [2H]C([2H])([2H])O[C@H]1CC[C@@]2(Cc3ccc(-c4cc(Cl)cnc4F)cc3[C@]23N=C(N)OC3([2H])[2H])C[C@@H]1C [Compound 103, {(1S,1′R,3S,4S)-6′-(2-fluoro-5-chloropyridin-3-yl)-4-(methoxy-d3)-3-methyl-3′H,5″H-dispiro[cyclohexane-1,2′-indene-1′,4″-oxazol]-5″,5″-d2-2″-amine}] | 0.055 µM | 0.022 µM | 0.6 nM |  |  |  |
| [2H]C([2H])([2H])O[C@H]1CC[C@@]2(Cc3ccc(-c4cnccc4F)cc3[C@]23N=C(N)OC3([2H])[2H])C[C@@H]1C [Compound 104, {(1S,1′R,3S,4S)-6′-(4-fluoropyridin-3-yl)-4-(methoxy-d3)-3-methyl-3′H,5″H-dispiro[cyclohexane-1,2′-indene-1′,4″-oxazol]-5″,5″-d2-2″-amine}] | 1.01 µM | 0.077 µM | 0.7 nM |  |  |  |
| [2H]C([2H])([2H])O[C@H]1CC[C@@]2(Cc3ccc(-c4cncc(C#N)c4)cc3[C@]23N=C(N)OC3([2H])[2H])C[C@@H]1C [Compound 105, {(1S,1′R,3S,4S)-6′-(5-cyanopyridin-3-yl)-4-(methoxy-d3)-3-methyl-3′H,5″H-dispiro[cyclohexane-1,2′-indene-1′,4″-oxazol]-5″,5″-d2-2″-amine}] | 0.071 µM | 0.013 µM | 0.4 nM |  |  |  |
| [2H]C([2H])([2H])O[C@@H]1CC[C@]2(Cc3ccc(-c4cc(Cl)cnc4F)cc3[C@]23N=C(N)OC3([2H])[2H])C[C@H]1C [Compound 106, {(1R,1′R,3R,4R)-4-(methoxy-d3)-3-methyl-6′-(2-fluoro-5-chloropyridin-3-yl)-3′H,5″H-dispiro[cyclohexane-1,2′-indene-1′,4″-oxazol]-5″,5″-d2-2″-amine}] | 0.08 µM | 0.049 µM | 2.8 nM |  |  |  |
| [2H]C([2H])([2H])O[C@@H]1CC[C@]2(Cc3ccc(-c4cncc(C#N)c4)cc3[C@]23N=C(N)OC3([2H])[2H])C[C@H]1C [Compound 108, {(1R,1′R,3R,4R)-4-(methoxy-d3)-3-methyl-6′-(5-cyanopyridin-3-yl)-3′H,5″H-dispiro[cyclohexane-1,2′-indene-1′,4″-oxazol]-5″,5″-d2-2″-amine}] | 0.058 µM | 0.056 µM | 1.5 nM |  |  |  |

— patent US10053453B2, “Compounds and their use as BACE inhibitors” (AstraZeneca AB, priority 2014, dated 2018)
